Patent US4051129A, “Process for preparing 7-methoxycephalosporin compounds” (Sankyo Company Limited, priority 1974, dated 1977)
≈ marks a conversion by molar mass, not a printed value. Read-outs that look alike come from different tables or passages of the source.

What was measured:
Format in all cases: cell-based
[1] = test system: Salmonella enteritidis Gartner; test: Minimum Inhibitory Concentration, Salmonella enteritidis Gartner; conditions: Salmonella enterica; VI: Salmonella enteritidis Gartner
[2] = test system: Shigella flexneri Komagome; test: Minimum Inhibitory Concentration, Shigella flexneri Komagome; conditions: III: Shigella flexneri Komagome
[3] = test system: Staphylococcus aureus 209 P; test: Minimum Inhibitory Concentration, Staphylococcus aureus 209 P; conditions: IA: Staphylococcus aureus 209 P
[4] = test system: Klebsiella neumoniae 846 (resistant to CER); test: Minimum Inhibitory Concentration, Klebsiella neumoniae 846 (resistant to CER); conditions: read-out: Minimum Inhibitory Concentration
Klebsiella neumoniae 806 = test: Minimum Inhibitory Concentration, Klebsiella neumoniae 806; conditions: Klebsiella, 806, read-out: Minimum Inhibitory Concentration
Proteus vulgaris = test: Minimum Inhibitory Concentration, Proteus vulgaris; conditions: V: Proteus vulgaris
[5] = test system: Staphylococcus aureus (resistant to CP and PC); test: Minimum Inhibitory Concentration, Staphylococcus aureus (resistant to CP and PC); conditions: IB: Staphylococcus aureus (resistant to CP and PC)
[6] = test system: Escherichia coli 609 (resistant to CER); test: Minimum Inhibitory Concentration, Escherichia coli 609 (resistant to CER); conditions: read-out: Minimum Inhibitory Concentration
Escherichia coli NIHJ = test: Minimum Inhibitory Concentration, Escherichia coli NIHJ; conditions: IIA: Escherichia coli NIHJ
[7] = IIB: Escherichia coli 609 (resistant to CER)

| SMILES | MIC [1] [µg/mL] | MIC [2] [µg/mL] | MIC [3] [µg/mL] | MIC [4] [µg/mL] | MIC (Klebsiella neumoniae 806) [µg/mL] | MIC (Proteus vulgaris) [µg/mL] | MIC [5] [µg/mL] | MIC ([6]; Escherichia coli) [µg/mL] | MIC [6, 7] [µg/mL] | MIC (Escherichia coli NIHJ) [µg/mL] |
| --- | --- | --- | --- | --- | --- | --- | --- | --- | --- | --- |
| CCS(=O)(=O)CC(=O)N[C@]1(OC)C(=O)N2C(C(=O)O)=C(CSc3nnnn3C)CS[C@@H]21 [C2 H5 SO2 / drawing 6, 7β-ethylsulfonylacetamido-7α-methoxy-3-(1-methyl-1H-tetrazol-5-yl)thiomethyl-3-cephem-4-carboxylic acid] | 0.8 (≈ 1.62 µM) | 1.5 (≈ 3.05 µM) | – | – | – | – | – | – | – | – |
| CO[C@@]1(NC(=O)CSCN=[N+]=[N-])C(=O)N2C(C(=O)O)=C(COC(N)=O)CS[C@@H]21 [N3 CH2 S / OCONH2, 7β-azidomethylthioacetamido-3-carbamoyloxymethyl-7α-methoxy-3-cephem-4-carboxylic acid] | – | 3.1 (≈ 7.17 µM) | 0.2 (≈ 0.462 µM) | > 400 | – | – | – | – | – | – |
| CO[C@@]1(NC(=O)CS(=O)(=O)CCC#N)C(=O)N2C(C(=O)O)=C(CSc3nnnn3C)CS[C@@H]21 [NC(CH2)2 SO2 / drawing 6, 7β-cyanoethylsulfonyl-acetamido-7α-methoxy-3-(1-methyl-1H-tetrazol-5-yl)thiomethyl-3-cephem-4-carboxylic acid] | 0.8 (≈ 1.55 µM) | 3.1 (≈ 5.99 µM) | – | 200 (≈ 386 µM) | – | – | – | – | – | – |
| CO[C@@]1(NC(=O)CSCN=[N+]=[N-])C(=O)N2C(C(=O)O)=C(COC(C)=O)CS[C@@H]21 [N3 CH2 S / OCOCH3, 3-acetoxymethyl-7β-azidomethylthioacetamido-7α-methoxy-3-cephem-4-carboxylic acid] | – | 6.2 (≈ 14.4 µM) | – | > 200 | 6.2 (≈ 14.4 µM) | – | – | – | – | – |
| CO[C@@]1(NC(=O)CSCC#N)C(=O)N2C(C(=O)O)=C(CSc3nnnn3C)CS[C@@H]21 [NCCH2 S / drawing 6, 7β-cyanomethylthioacetamido-7α-methoxy-3-(1-methyl-1H-tetrazol-5-yl)thiomethyl-3-cephem-4-carboxylic acid] | 0.2 (≈ 0.424 µM) | 0.8 (≈ 1.7 µM) | 0.2 (≈ 0.424 µM) | – | 0.8 (≈ 1.7 µM) | 1.5 (≈ 3.18 µM) | – | – | – | – |
| CO[C@@]1(NC(=O)CSCN=[N+]=[N-])C(=O)N2C(C(=O)O)=C(CSc3nnnn3C)CS[C@@H]21 [N3 CH2 S / drawing 10, 7β-azidomethylthioacetamido-7α-methoxy-3-(1-methyl-1H-tetrazol-5-yl)thiomethyl-3-cephem-4-carboxylic acid] | 0.8 (≈ 1.64 µM) | 1.5 (≈ 3.08 µM) | 0.4 (≈ 0.82 µM) | > 200 | – | – | 0.4 (≈ 0.82 µM) | – | – | – |
| CO[C@@]1(NC(=O)CSCC#N)C(=O)N2C(C(=O)O)=C(COC(C)=O)CS[C@@H]21 [NCCH2 S / OCOCH3, 3-acetoxymethyl-7β-cyanomethylthioacetamido-7α-methoxy-3-cephem-4-carboxylic acid] | – | 3.1 (≈ 7.46 µM) | – | – | – | – | – | – | – | – |
| CO[C@@]1(NC(=O)CS(C)(=O)=O)C(=O)N2C(C(=O)O)=C(CSc3nnnn3C)CS[C@@H]21 [CH3 SO2 / drawing 6, 7β-methylsulfonylacetamido-7α-methoxy-3-(1-methyl-1H-tetrazol-5-yl)thiomethyl-3-cephem-4-carboxylic acid] | – | 1.5 (≈ 3.13 µM) | – | – | – | – | – | – | – | – |
| CO[C@@]1(NC(=O)C[n+]2cc([O-])on2)C(=O)N2C(C(=O)O)=C(CSc3nnnn3C)CS[C@@H]21 [drawing 7 / drawing 6, 7β-(sydnon-3)acetamido-7α-methoxy-3-(1-methyl-1H-tetrazol-5-yl)thiomethyl-3-cephem-4-carboxylic acid] | 0.8 (≈ 1.65 µM) | 1.5 (≈ 3.1 µM) | 0.8 (≈ 1.65 µM) | > 200 | – | – | – | – | – | – |
| CO[C@@]1(NC(=O)COc2ccon2)C(=O)N2C(C(=O)O)=C(CSc3nnnn3C)CS[C@@H]21 [drawing 11 / drawing 10, 7β-(3-isoxazolyloxy)acetamido-7α-methoxy-3-(1-methyl-1H-tetrazol-5-yl)thiomethyl-3-cephem-4-carboxylic acid] | – | 3.1 (≈ 6.41 µM) | – | – | – | – | – | – | – | – |
| CO[C@@]1(NC(=O)CSCCO)C(=O)N2C(C(=O)O)=C(CSc3nnnn3C)CS[C@@H]21 [HOCH2 CH2 S / drawing 6, 7β-(2-hydroxyethylthio)acetamido-7α-methoxy-3-(1-methyl-1H-tetrazol-5-yl)thiomethyl-3-cephem-4-carboxylic acid] | 0.8 (≈ 1.68 µM) | 1.5 (≈ 3.15 µM) | 0.8 (≈ 1.68 µM) | 200 (≈ 420 µM) | – | 3.1 (≈ 6.5 µM) | – | – | – | – |
| C#CCSCC(=O)N[C@]1(OC)C(=O)N2C(C(=O)O)=C(CSc3nnnn3C)CS[C@@H]21 [drawing 9 / drawing 10, 7β-propargylthioacetamido-7α-methoxy-3-(1-methyl-1H-tetrazol-5-yl)thiomethyl-3-cephem-4-carboxylic acid] | – | 3.1 (≈ 6.59 µM) | – | – | – | – | – | – | – | – |
| CO[C@@]1(NC(=O)CSc2ccon2)C(=O)N2C(C(=O)O)=C(CSc3nnnn3C)CS[C@@H]21 [drawing 12 / drawing 10, 7β-(3-isoxazolylthio)acetamido-7α-methoxy-3-(1-methyl-1H-tetrazol-5-yl)thiomethyl-3-cephem-4-carboxylic acid] | 0.8 (≈ 1.6 µM) | 3.1 (≈ 6.21 µM) | 0.2 (≈ 0.4 µM) | > 400 | – | – | 0.8 (≈ 1.6 µM) | – | – | – |
| CO[C@@]1(NC(=O)CSc2ccon2)C(=O)N2C(C(=O)O)=C(COC(C)=O)CS[C@@H]21 [drawing 13 / OCOCH3, 3-acetoxymethyl-7β-(3-isoxazolylthio)acetamido-7α-methoxy-3-cephem-4-carboxylic acid] | – | 6.2 (≈ 14 µM) | – | – | – | – | – | – | – | – |
| C#CCSCC(=O)N[C@]1(OC)C(=O)N2C(C(=O)O)=C(COC(C)=O)CS[C@@H]21 [drawing 14 / OCOCH3] | 6.2 (≈ 15 µM) | 12.5 (≈ 30.2 µM) | 1.5 (≈ 3.62 µM) | > 200 | 12.5 (≈ 30.2 µM) | 12.5 (≈ 30.2 µM) | 6.2 (≈ 15 µM) | 12.5 (≈ 30.2 µM) | – | – |
| CO[C@@]1(NC(=O)CSCC#N)C(=O)N2C(C(=O)O)=C(COC(N)=O)CS[C@@H]21 [NCCH2 S / OCONH2, 3-carbamoyloxymethyl-7β-cyanomethylthioacetamido-7α-methoxy-3-cephem-4-carboxylic acid] | 1.5 (≈ 3.6 µM) | 3.1 (≈ 7.44 µM) | – | – | 3.1 (≈ 7.44 µM) | – | 3.1 (≈ 7.44 µM) | – | 1.5 (≈ 3.6 µM) | – |
| CO[C@@]1(NC(=O)CSC(C)C#N)C(=O)N2C(C(=O)O)=C(CSc3nnnn3C)CS[C@@H]21 (stereo partly drawn) [drawing 8 / drawing 6, 7β-(1-cyanoethyl)-acetamido-7α-methoxy-3-(1-methyl-1H-tetrazol-5-yl)thiomethyl-3-cephem-4-carboxylic acid] | 0.4 (≈ 0.824 µM) | 1.5 (≈ 3.09 µM) | 0.4 (≈ 0.824 µM) | 400 (≈ 824 µM) | 1.5 (≈ 3.09 µM) | 0.8 (≈ 1.65 µM) | 0.8 (≈ 1.65 µM) | – | 3.1 (≈ 6.38 µM) | 1.5 (≈ 3.09 µM) |
